The experiment concerns BDF1 mice, P388 leukemia ip, median survival T/C. As to the kind of experiment: NCI In Vivo Anticancer Drug Screen. Data for tumor model P388 Leukemia (intraperitoneal) in B6D2F1 (BDF1) mice. The conditions noted are these: endpoint: median survival time, higher = longer survival. In outline: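 Compound-treated tumour-bearing mice were compared with vehicle-treated controls. Survival was recorded, and the value is the treated-group measurement divided by the control-group measurement (T/C).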

Setting [1] is: dose: 6.25 mg/kg/injection, schedule: Q01DX009 (ip), vehicle: saline.
[2] abbreviates: dose: 12.5 mg/kg/injection, schedule: Q01DX009 (ip), vehicle: saline.
The mark [3] stands for this setting: dose: 25.0 mg/kg/injection, schedule: Q01DX009 (ip), vehicle: saline.
[4] abbreviates: dose: 25.0 mg/kg/injection, schedule: Q01DX009 (ip), vehicle: Klucel (hydroxypropylcellulose) (HPC).
The mark [5] stands for this setting: dose: 50.0 mg/kg/injection, schedule: Q01DX009 (ip), vehicle: Klucel (hydroxypropylcellulose) (HPC).
Where [6] appears, read: dose: 100.0 mg/kg/injection, schedule: Q01DX009 (ip), vehicle: Klucel (hydroxypropylcellulose) (HPC).
The mark [7] stands for this setting: dose: 100.0 mg/kg/injection, schedule: Q04DX003 (ip), vehicle: Klucel (hydroxypropylcellulose) (HPC).
The mark [8] stands for this setting: dose: 200.0 mg/kg/injection, schedule: Q01DX009 (ip), vehicle: Klucel (hydroxypropylcellulose) (HPC).
Where [9] appears, read: dose: 200.0 mg/kg/injection, schedule: Q04DX003 (ip), vehicle: Klucel (hydroxypropylcellulose) (HPC).
Setting [10] is: dose: 400.0 mg/kg/injection, schedule: Q04DX003 (ip), vehicle: Klucel (hydroxypropylcellulose) (HPC).
Setting [11] is: dose: 100.0 mg/kg/injection, schedule: Q04DX003 (ip), vehicle: saline with Tween-80.
The mark [12] stands for this setting: dose: 200.0 mg/kg/injection, schedule: Q04DX003 (ip), vehicle: saline with Tween-80.
Where [13] appears, read: dose: 400.0 mg/kg/injection, schedule: Q04DX003 (ip), vehicle: saline with Tween-80.
[14] abbreviates: dose: 400.0 mg/kg/injection, schedule: Q01DX009 (ip), vehicle: Klucel (hydroxypropylcellulose) (HPC).
Setting [15] is: dose: 25.0 mg/kg/injection, schedule: Q01DX009 (ip), vehicle: saline with Tween-80.
Setting [16] is: dose: 50.0 mg/kg/injection, schedule: Q01DX009 (ip), vehicle: saline with Tween-80.
Setting [17] is: dose: 100.0 mg/kg/injection, schedule: Q01DX009 (ip), vehicle: saline with Tween-80.

Where “and” joins values, the source holds several entries; their conditions need not be identical. Identical values can stand only once. Toxic doses and inconclusive results are not listed.

For the compound `CCOC(=O)N(C)C1CCC1NC` (stereo not given), the T/C was 100 % of control (dose: 50.0 mg/kg/injection, schedule: Q01DX001 (ip), vehicle: saline); 95 % of control (dose: 100.0 mg/kg/injection, schedule: Q01DX001 (ip), vehicle: saline); 95 % of control (dose: 200.0 mg/kg/injection, schedule: Q01DX001 (ip), vehicle: saline).
Regarding `CC(=O)CC(C)=O.CC(=O)CC(C)=O.[Fe]`, the T/C under setting [1] was 113 % of control; the T/C (dose: 6.25 mg/kg/injection, schedule: Q04DX003 (ip), vehicle: saline) was 113 % of control; the T/C under setting [2] was 104 % of control; the T/C (dose: 12.5 mg/kg/injection, schedule: Q04DX003 (ip), vehicle: saline) is 113 % of control; the T/C under setting [3] is 113 % of control; the T/C (dose: 25.0 mg/kg/injection, schedule: Q04DX003 (ip), vehicle: saline) is 113 % of control. The T/C (dose: 35.0 mg/kg/injection, schedule: Q04DX003 (ip), vehicle: saline) was 113 % of control.
As for `[Cl][Pt+2][Cl].[NH-]C1CCC1.[NH-]C1CCC1`, the T/C by setting is: (dose: 12.5 mg/kg/injection, schedule: Q01DX009 (ip), vehicle: Klucel (hydroxypropylcellulose) (HPC)) 173 % of control and 201 % of control; under setting [4], 195 % of control and 213 % of control; under setting [5], 94 % of control and 115 % of control.
As for `CCOP(=O)(OCC)C(C)OC` (stereo not given), the T/C by setting is: (dose: 50.0 mg/kg/injection, schedule: Q01DX009 (ip), vehicle: saline) 100 % of control and 105 % of control; (dose: 100.0 mg/kg/injection, schedule: Q01DX009 (ip), vehicle: saline) 115 % of control and 116 % of control; (dose: 200.0 mg/kg/injection, schedule: Q01DX009 (ip), vehicle: saline) 104 % of control and 120 % of control; (dose: 400.0 mg/kg/injection, schedule: Q01DX009 (ip), vehicle: saline) 100 % of control.
In the case of `CNC(=O)c1nc(C)c(C)[nH]c1=O`, the T/C (dose: 25.0 mg/kg/injection, schedule: Q01DX009 (ip), vehicle: water) is 97 % of control; the T/C (dose: 50.0 mg/kg/injection, schedule: Q01DX009 (ip), vehicle: water) is 90 % of control; the T/C (dose: 50.0 mg/kg/injection, schedule: Q04DX003 (ip), vehicle: water) was 103 % of control; the T/C (dose: 100.0 mg/kg/injection, schedule: Q01DX009 (ip), vehicle: water) was 99 % of control; the T/C (dose: 200.0 mg/kg/injection, schedule: Q01DX009 (ip), vehicle: water) is 90 % of control; the T/C (dose: 400.0 mg/kg/injection, schedule: Q04DX003 (ip), vehicle: water) was 100 % of control.
As for `CCCCC(CC)CCC(O)CC(C)C` (stereo not given), the T/C under setting [5] was 100 % of control; the T/C under setting [6] was 95 % of control; the T/C under setting [7] is 104 % of control; the T/C under setting [8] is 100 % of control; the T/C under setting [9] was 100 % of control; the T/C under setting [10] is 100 % of control.
Turning to `COC(=O)C(Br)C(Br)c1ccc(-c2ccccc2)cc1` (stereo not given), the T/C is, setting by setting: under setting [11], 92 % of control; under setting [12], 89 % of control; under setting [13], 104 % of control.
Regarding `C1CC[N-]CC1.C1CC[N-]CC1.[Co].[N-]=C=S.[N-]=C=S`, the T/C (dose: 100.0 mg/kg/injection, schedule: Q01DX001 (ip), vehicle: saline with Tween-80) is 99 % of control.
`O=C1c2ccccc2C(=O)N1c1ccc(S(=O)(=O)c2ccc(N3C(=O)c4ccccc4C3=O)cc2)cc1`: the T/C runs as follows: (dose: 87.5 mg/kg/injection, schedule: Q01DX009 (ip), vehicle: saline with Tween-80) 104 % of control; (dose: 175.0 mg/kg/injection, schedule: Q01DX009 (ip), vehicle: saline with Tween-80) 100 % of control; (dose: 350.0 mg/kg/injection, schedule: Q01DX009 (ip), vehicle: saline with Tween-80) 98 % of control.
As for `CC(/C=C/C=C/c1ccccc1)=N\O`, the T/C runs as follows: under setting [8], 90 % of control; under setting [14], 95 % of control.
On to `COC(=O)C(Br)C(OC)c1ccc(Cl)cc1` (stereo not given), for which the T/C runs as follows: under setting [11], 109 % of control; under setting [12], 109 % of control; under setting [13], 118 % of control.
As to `O=S(=O)(F)c1cccc(C[P+](c2ccccc2)(c2ccccc2)c2ccccc2)c1`, the T/C is 118 % of control (dose: 5.5 mg/kg/injection, schedule: Q01DX009 (ip), vehicle: Klucel (hydroxypropylcellulose) (HPC)); 118 % of control and 120 % of control (dose: 70.0 mg/kg/injection, schedule: Q04DX003 (ip), vehicle: Klucel (hydroxypropylcellulose) (HPC)); 118 % of control (dose: 73.0 mg/kg/injection, schedule: Q04DX003 (ip), vehicle: Klucel (hydroxypropylcellulose) (HPC)); 95 % of control (dose: 170.0 mg/kg/injection, schedule: Q04DX003 (ip), vehicle: Klucel (hydroxypropylcellulose) (HPC)); 108 % of control and 120 % of control (dose: 255.0 mg/kg/injection, schedule: Q04DX003 (ip), vehicle: Klucel (hydroxypropylcellulose) (HPC)).
Turning to `NC(N)=NCCCCCCC(=O)Nc1ccc(S(N)(=O)=O)cc1`, the T/C is 112 % of control under setting [15], 106 % of control under setting [16] and 97 % of control under setting [17].
With `CSc1ccc(NC(=O)N(CCCl)N=O)cc1`, the T/C was 100 % of control under setting [1]; 90 % of control (dose: 6.25 mg/kg/injection, schedule: Q04DX003 (ip), vehicle: saline sonified); 100 % of control (dose: 11.0 mg/kg/injection, schedule: Q04DX003 (ip), vehicle: saline sonified); 100 % of control under setting [2]; 109 % of control (dose: 12.5 mg/kg/injection, schedule: Q04DX003 (ip), vehicle: saline sonified); 122 % of control (dose: 16.0 mg/kg/injection, schedule: Q04DX003 (ip), vehicle: saline sonified). In addition, the T/C by setting is: under setting [3], 116 % of control; (dose: 37.5 mg/kg/injection, schedule: Q04DX003 (ip), vehicle: saline sonified) 122 % of control.
Take `COC1=CC(=O)c2c(O)cc(OC)c(O)c2C1=O`: the T/C was 104 % of control (dose: 2.5 mg/kg/injection, schedule: Q01DX009 (ip), vehicle: saline with Tween-80) and 113 % of control (dose: 5.0 mg/kg/injection, schedule: Q01DX009 (ip), vehicle: saline with Tween-80).
`N=c1ccn2c(n1)OC1C(O)C(COS(=O)OC3C(CO)OC4C3Oc3nc(=N)ccn34)OC12` (stereo not given): the T/C was 122 % of control under setting [15]; 161 % of control under setting [17]; 175 % of control (dose: 200.0 mg/kg/injection, schedule: Q01DX009 (ip), vehicle: saline with Tween-80).
With `S=C(NNc1ccccc1)NC1CCCCC1`, the T/C by setting is: (dose: 100.0 mg/kg/injection, schedule: Q01DX001 (ip), vehicle: Klucel (hydroxypropylcellulose) (HPC)) 100 % of control; under setting [6], 86 % of control; under setting [7], 110 % of control; (dose: 200.0 mg/kg/injection, schedule: Q01DX001 (ip), vehicle: Klucel (hydroxypropylcellulose) (HPC)) 100 % of control; under setting [8], 90 % of control; under setting [9], 105 % of control. Further, the T/C runs as follows: (dose: 400.0 mg/kg/injection, schedule: Q01DX001 (ip), vehicle: Klucel (hydroxypropylcellulose) (HPC)) 104 % of control; under setting [14], 100 % of control; under setting [10], 110 % of control.
Consider `C=C1C(=O)OC2CC(C)C3CC(=O)C(C)=C3C(O)C12` (stereo not given), for which the T/C by setting is: under setting [4], 120 % of control; under setting [5], 112 % of control.
For the compound `C#CC(OC(=O)NC1CCCCC1)(c1ccccc1)c1ccccc1`, the T/C was 98 % of control (dose: 16.5 mg/kg/injection, schedule: Q01DX009 (ip), vehicle: saline with Tween-80); 215 % of control under setting [15]; 213 % of control (dose: 37.5 mg/kg/injection, schedule: Q01DX009 (ip), vehicle: saline with Tween-80); 190 % of control under setting [16]; 183 % of control (dose: 88.0 mg/kg/injection, schedule: Q04DX003 (ip), vehicle: saline with Tween-80); 187 % of control (dose: 132.0 mg/kg/injection, schedule: Q04DX003 (ip), vehicle: saline with Tween-80). For the same compound, under setting [12], the T/C was 116 % of control.

Source of the values: PubChem BioAssay AID328 (DTP/NCI, 2004).
